In US8236850B2, “Dimeric derivatives of artemisinin and application in anticancer therapy” (Pierre Fabre Medicament, priority 2007, dated 2012):

Columns and labels:
A549 cell line (lung) = test: Cytotoxic activity: inhibition of cell proliferation, residual ATP by luminescence (ATPLite); type: cell-based; settings: Homo sapiens, 72 hours of incubation
Experimental: (§1) Cytotoxic activity of the compounds prepared according to the invention was evaluated by measuring inhibition of cell proliferation of tumoral cell lines of human origin, such as the A549 cell line (lung) and the Namalwa cell line (lymphoma). This activity is expressed by IC50, the concentration of the tested product capable of inhibiting cell proliferation by 50%. The method used is a measurement of residual ATP by luminescence after 72 hours of incubation by using the “ATPLite” kit marketed by Perkin Elmer.

[1] = tested on: Namalwa cell line (lymphoma); test: as above; type: cell-based; settings: Homo sapiens, 72 hours of incubation
Experimental: as §1

SMILES | IC50 (A549 cell line (lung)) [nM] | IC50 [1] [nM]
C[C@@H]1CC[C@H]2C(CSCC3=C(C(F)(F)F)O[C@@H]4O[C@@]5(C)CCC6[C@H](C)CC[C@@H]3[C@]64OO5)=C(C(F)(F)F)O[C@@H]3OC4(C)CCC1[C@]32OO4 (stereo partly shown) [Compound 1] | 200 | 290
C[C@@H]1CC[C@H]2C(C[S+]([O-])CC3=C(C(F)(F)F)O[C@@H]4O[C@@]5(C)CCC6[C@H](C)CC[C@@H]3[C@]64OO5)=C(C(F)(F)F)O[C@@H]3OC4(C)CCC1[C@]32OO4 (stereo partly shown) [Compound 2] | 850 | 1000
C[C@@H]1CC[C@H]2C(CS(=O)(=O)CC3=C(C(F)(F)F)O[C@@H]4O[C@@]5(C)CCC6[C@H](C)CC[C@@H]3[C@]64OO5)=C(C(F)(F)F)O[C@@H]3OC4(C)CCC1[C@]32OO4 (stereo partly shown) [Compound 3] | 1200 | 2300
C[C@@H]1CC[C@H]2C(CSSCC3=C(C(F)(F)F)O[C@@H]4O[C@@]5(C)CCC6[C@H](C)CC[C@@H]3[C@]64OO5)=C(C(F)(F)F)O[C@@H]3OC4(C)CCC1[C@]32OO4 (stereo partly shown) [Compound 4] | 84 | 64
C[C@@H]1CC[C@H]2C(COCCSSCCOCC3=C(C(F)(F)F)O[C@@H]4O[C@@]5(C)CCC6[C@H](C)CC[C@@H]3[C@]64OO5)=C(C(F)(F)F)O[C@@H]3OC4(C)CCC1[C@]32OO4 (stereo partly shown) [Compound 5] | 90 | 50
C[C@@H]1CC[C@H]2C(CSCCSCC3=C(C(F)(F)F)O[C@@H]4O[C@@]5(C)CCC6[C@H](C)CC[C@@H]3[C@]64OO5)=C(C(F)(F)F)O[C@@H]3OC4(C)CCC1[C@]32OO4 (stereo partly shown) [Compound 6] | 63 | 27
C[C@@H]1CC[C@H]2C(CSCCCSCC3=C(C(F)(F)F)O[C@@H]4O[C@@]5(C)CCC6[C@H](C)CC[C@@H]3[C@]64OO5)=C(C(F)(F)F)O[C@@H]3OC4(C)CCC1[C@]32OO4 (stereo partly shown) [Compound 7] | 150 | 100
C[C@@H]1CC[C@H]2C(CSCCCCSCC3=C(C(F)(F)F)O[C@@H]4O[C@@]5(C)CCC6[C@H](C)CC[C@@H]3[C@]64OO5)=C(C(F)(F)F)O[C@@H]3OC4(C)CCC1[C@]32OO4 (stereo partly shown) [Compound 8] | 270 | 64
C[C@@H]1CC[C@H]2C(COCCSCC3=C(C(F)(F)F)O[C@@H]4O[C@@]5(C)CCC6[C@H](C)CC[C@@H]3[C@]64OO5)=C(C(F)(F)F)O[C@@H]3OC4(C)CCC1[C@]32OO4 (stereo partly shown) [Compound 9] | 31 | 24
C[C@@H]1CC[C@H]2C(CN(C)CCN(C)CC3=C(C(F)(F)F)O[C@@H]4O[C@@]5(C)CCC6[C@H](C)CC[C@@H]3[C@]64OO5)=C(C(F)(F)F)O[C@@H]3OC4(C)CCC1[C@]32OO4 (stereo partly shown) [Compound 11] | 1100 | 790
C[C@@H]1CC[C@H]2C(CN(C)CCCN(C)CC3=C(C(F)(F)F)O[C@@H]4O[C@@]5(C)CCC6[C@H](C)CC[C@@H]3[C@]64OO5)=C(C(F)(F)F)O[C@@H]3OC4(C)CCC1[C@]32OO4 (stereo partly shown) [Compound 12] | 690 | 390
C[C@@H]1CC[C@H]2C(COC(=O)c3cccc(C(=O)OCC4=C(C(F)(F)F)O[C@@H]5O[C@@]6(C)CC[C@H]7[C@H](C)CC[C@@H]4[C@@]57OO6)n3)=C(C(F)(F)F)O[C@@H]3O[C@@]4(C)CC[C@@H]1[C@]32OO4 [Compound 25] | 140 | 62
C[C@@H]1CC[C@H]2C(COC(=O)c3cccc(C(=O)OCC4=C(C(F)(F)F)O[C@@H]5O[C@@]6(C)CC[C@H]7[C@H](C)CC[C@@H]4[C@@]57OO6)c3)=C(C(F)(F)F)O[C@@H]3O[C@@]4(C)CC[C@@H]1[C@]32OO4 [Compound 26] | 71 | 54
C[C@@H]1CC[C@H]2C(COC(=O)c3ccc(C(=O)OCC4=C(C(F)(F)F)O[C@@H]5O[C@@]6(C)CC[C@H]7[C@H](C)CC[C@@H]4[C@@]57OO6)s3)=C(C(F)(F)F)O[C@@H]3O[C@@]4(C)CC[C@@H]1[C@]32OO4 [Compound 27] | 210 | 130
C[C@@H]1CC[C@H]2C(CNC(=O)c3cccc(C(=O)NCC4=C(C(F)(F)F)O[C@@H]5O[C@@]6(C)CC[C@H]7[C@H](C)CC[C@@H]4[C@@]57OO6)n3)=C(C(F)(F)F)O[C@@H]3O[C@@]4(C)CC[C@@H]1[C@]32OO4 [Compound 30] | 170 | 72
C[C@@H]1CC[C@H]2C(CNC(=O)c3ccc(C(=O)NCC4=C(C(F)(F)F)O[C@@H]5O[C@@]6(C)CC[C@H]7[C@H](C)CC[C@@H]4[C@@]57OO6)s3)=C(C(F)(F)F)O[C@@H]3O[C@@]4(C)CC[C@@H]1[C@]32OO4 [Compound 31] | 220 | 88
C[C@@H]1CC[C@H]2C(COCc3cnnn3CC3=C(C(F)(F)F)O[C@@H]4O[C@@]5(C)CC[C@@]6(C)[C@H](C)CC[C@@H]3[C@@]46OO5)=C(C(F)(F)F)O[C@@H]3O[C@@]4(C)CC[C@@H]1[C@]32OO4 [Compound 32] | 270 | 130
C[C@@H]1CC[C@H]2C(COCc3cn(CC4=C(C(F)(F)F)O[C@@H]5O[C@]6(C)CC[C@H]7[C@H](C)CC[C@@H]4[C@@]57OO6)nn3)=C(C(F)(F)F)O[C@@H]3O[C@@]4(C)CC[C@@H]1[C@]32OO4 [Compound 33] | 110 | 30
C[C@@H]1CC[C@H]2C(COCc3cccc(COCC4=C(C(F)(F)F)O[C@@H]5O[C@@]6(C)CC[C@H]7[C@H](C)CC[C@@H]4[C@@]57OO6)n3)=C(C(F)(F)F)O[C@@H]3O[C@@]4(C)CC[C@@H]1[C@]32OO4 [Compound 37] | 74 | 30
C[C@@H]1CC[C@H]2C(COCC#CC(O)C3=C(C(F)(F)F)O[C@@H]4O[C@@]5(C)CC[C@H]6[C@H](C)CC[C@@H]3[C@@]46OO5)=C(C(F)(F)F)O[C@@H]3O[C@@]4(C)CC[C@@H]1[C@]32OO4 (stereo partly shown) [Compound 39] | 240 | 160
